Test system: breast cancer cell lines
Assay: single agent sensitivity of breast cancer cell lines
Type: cell-based
Settings: FIG. 1A and 1B
Procedure: Cell lines were treated with agents described herein (e.g. ipatasertib, palbociclib, and fulvestrant). […] (See FIG. 1A and FIG. 1B). There was synergy between ipatasertib and palbociclib as show by the BLISS scores of FIGS. 2A, 2B, 2C, and 2D. […] The percent weight loss resulting from treatment is shown by FIGS. 8A and 8B.

Row | SMILES | single agent sensitivity of breast cancer cell lines
1 | CC(C)NC[C@@H](C(=O)N1CCN(c2ncnc3c2[C@H](C)C[C@H]3O)CC1)c1ccc(Cl)cc1 [ipatasertib, (S)-2-(4-chlorophenyl)-1-(4-((5R,7R)-7-hydroxy-5-methyl-6,7-dihydro-5H-cyclopenta[d]pyrimidin-4-yl)piperazin-1-yl)-3-(isopropylamino)propan-1-one] | differential single agent sensitivity
2 | CC(=O)c1c(C)c2cnc(Nc3ccc(N4CCNCC4)cn3)nc2n(C2CCCC2)c1=O [palbociclib, 6-acetyl-8-cyclopentyl-5-methyl-2-{[5-(piperazin-1-yl)pyridin-2-yl]amino}pyrido[2,3-d]pyrimidin-7(8H)-one] | differential single agent sensitivity
